Legend:
[1] = Hepatocyte intrinsic clearance assay, human hepatocytes; assay type: in vitro ADME; details: male, cryopreserved pooled human hepatocytes; Human Hepatocytes, 1 μM test compound
Outline: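 Cryopreserved pooled male human or male CD-1 mouse hepatocytes (1×10^6 cells/mL final) incubated with 1 μM compound at 37° C, sampled from 0 to 120 min, quenched in acetonitrile and analysed by LC-MS in duplicate. t1/2 and CLint come from the ln(% remaining) vs time slope. EH comes from the well-stirred liver model with fu=1.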

mouse hepatocytes = experiment: Hepatocyte intrinsic clearance assay, mouse hepatocytes; assay type: in vitro ADME
From the text: (§1) The liver is an important organ in the body for drug metabolism. This Example describes hepatocyte intrinsic clearance assays using both human and mouse hepatocytes to evaluate the metabolic stability of the indole compounds disclosed herein. The parameters measured include t1/2 (half-life), CLint (intrinsic clearance), and EH (hepatic extraction ratio).
(§2) Testosterone (Lot FE111011-01) was obtained from Cerilliant (Round Rock, TX). 7-hydroxycoumarin (Lot 11631ED) was obtained from Sigma Aldrich (St. Louis, MO). Cryopreserved human hepatocytes pooled from ten donor males (X008001), cryopreserved male IRC/CD-1 mouse hepatocytes (M005052), INVITROGRO HI Medium (incubation), and INVITROGRO HT Medium (thawing) were obtained from Bioreclamation IVT (Baltimore, MD). All solvents were obtained from commercial sources and used without further purification.
(§3) Each test compound was prepared as a 1 mM stock solution in DMSO. A 2 μM solution of test compound and positive controls were prepared in INVITROGRO HI Medium (incubation). These solutions were pre-warmed in a sterile incubator set to maintain 37° C., 5% CO2, and 98% humidity. Cryopreserved hepatocytes were prepared at a concentration of 2×10^6 living cells/mL in incubation media and pre-warmed in the incubator. The compound solutions and hepatocyte mixtures were then combined at a ratio of 1:1 (v:v). The final volume of the reaction mixture was 750 μL, containing 1 μM test compound (10 μM for 7-hydroxycoumarin) and […]. The reaction mixture was placed in the incubator on a plate shaker. After 0, 15, 30, 60, 90, and 120 minutes of incubation, 100 μL of reaction mixtures were removed from the incubation plate and mixed with 150 μL of ice-cold acetonitrile in a designated well of a 96-well crash plate. The 96-well crash plate was placed on ice for 15 min, and samples were centrifuged (3,600 RPM, 10 min, 4° C.) to precipitate protein. The supernatants were diluted 1:1 (v:v) with water containing 0.15 μM verapamil and/or 1 μM tolbutamide (internal standards for positive and negative modes, respectively) in a 96-well shallow injection plate. This plate was sealed for LC-MS analysis. All measurements were done in duplicate.
(§4) The residual compound remaining (% R) was determined from LC-MS peak areas by comparison to the zero time point. Metabolic half-life (t1/2) and intrinsic clearance (CLint) values were calculated from the slope of the plot of ln (% R) vs. time and the concentration of hepatocytes present in the incubation. Percent remaining at 60 minutes was calculated by plugging in the 60 minute value into the slope equation generated by the percent remaining time points.
(§5) In vivo hepatic clearance CLH was calculated using the well stirred liver model according to the following equation:
(§6) [formula] where QH is the total liver blood flow, fu is unbound fraction of the drug, and CL′int is defined as follows: CL′int=CLint×(10^6 cells/g of liver weight)×(g liver weight/kg of body weight). In the first approximation, used in this study, fu=1.
(§7) Hepatic extraction ratio EH was calculated using the following equation:
(§8) [formula] Corresponding physiological parameters used in calculations for all species are shown below in Table 5.

[2] = as above; assay type: in vitro ADME; details: male, IRC/CD-1, cryopreserved mouse hepatocytes; Mouse Hepatocytes, 1 μM test compound
From the text: as §1, §2, §3, §4, §5, §6, §7, §8

[3] = system: EMT-6 syngeneic mouse tumor model (breast cancer); experiment: Anti-tumor activity, EMT-6 syngeneic mouse tumor model; assay type: in vivo
Procedure: This example describes in vivo studies that evaluated the anti-cancer efficacy of the disclosed indole compounds in syngeneic mouse tumor models. Mice implanted subcutaneously with four types of cancer cells were treated with test indole compounds or vehicle controls as described below.
A monolayer culture of tumor cells was maintained in vitro in DMEM or RPMI1640 medium supplemented with 10% fetal bovine serum at 37° C. in an atmosphere of 5% CO2. Cells in exponential growth phase were harvested and quantitated by cell counter before tumor inoculation. The cell lines used are described in the table below.
Four subcutaneous syngeneic mouse tumor models were generated by innoculating female BALB/C or C57BL/6 mice with cancer cells at their right lower or front flank as detailed in the table below:
Each mouse was inoculated subcutaneously with tumor cells in 0.1 mL of PBS. Treatments were started when the mean tumor size reached approximately 80-120 mm^3 (around 100 mm^3). The administration of the indole compounds and the animal number in each study group are shown in the study design. The date of tumor cell inoculation was denoted as day 0.
The indole compounds were dissolved in DMSO at the final concentration of 26.7 mg/ml and stored at room temperature.
Randomization of animals was started when the mean tumor size reached approximately 90 mm^3 to form the mouse study groups. The randomization was performed based on “Matched distribution” method using the multi-task method (StudyDirector™ software, version 3.1.399.19)/randomized block design. The mouse groups (ten in each group) were treated with vehicle (DMSO) or the indole compounds at a dose of 40 mg/kg by i.p. injection, QD for 28 days or longer.
After tumor cell inoculation, the mice were checked daily for morbidity and mortality. During routine monitoring, the mice were checked for tumor growth and any effects of the treatment on behavior such as mobility, food and water consumption, body weight gain/loss (body weights were measured twice per week after randomization), eye/hair matting, and any other abnormalities. Mortality and observed clinical signs were recorded for individual mice in detail.
Tumor volumes were measured twice per week in two dimensions using a caliper, and the volume was expressed in mm^3 using the formula: V=(L×W×W)/2, where V is tumor volume, L is tumor length (the longest tumor dimension) and W is tumor width (the longest tumor dimension perpendicular to L). Dosing as well as tumor and body weight measurements was conducted in a Laminar Flow Cabinet. The body weights and tumor volumes were measured by using StudyDirector™ software (version 3.1.399.19). Dosing Holiday
Tumor growth inhibition percentage (TGI %) is an indicator for antitumor activity of a drug compound, and expressed as: TGI (%)=100×(1−T/C), where T and C are the mean tumor volume (or weight) of the treated and control groups, respectively, on a given day. Statistical analysis of the difference in mean tumor volume (MTV) among the groups was conducted using the data collected on the day when the MTV of the vehicle group reached the humane endpoints, so that TGI could be derived for all or most mice enrolled in the study.
In Studies 1 and 3, the anti-tumor activity of ARI-001 in parallel with ARI-002 at 160 mg/kg (mpk), and the anti-tumor activity of ARI-087 in parallel with ARI-002 at 40 mpk were assessed using the EMT-6, Pan02, A20, and LL/2 models. Because EMT-6 provides a fast-growing model that enables relatively quick differentiation of performance between compounds, this syngeneic mouse tumor model was chosen for the other studies. In Study 2, the anti-tumor activity of ARI-002 was compared with that of ARI-004 at 10, 40, and 80 mpk. In Study 4, the anti-tumor activity of ARI-087 was compared with that of ARI-140. In Study 5, the anti-tumor activity of ARI-087 was evaluated in parallel with ARI-143 and ARI-149 at 40 mpk. […]

## Nc1nnc(-c2csc(C(=O)c3c[nH]c4c(F)cccc34)n2)o1 [ARI-118, (4-(5-amino-1,3,4-oxadiazol-2-yl)thiazol-2-yl)(7-fluoro-1H-indol-3-yl)methanone]
[1]
  half-life at 1 μM: 15.4 h
Mouse hepatocytes; Mouse Hepatocytes, 1 μM test compound
  CLint (μL/min/10^6 ells): 0.8 μL/min/10^6 ells
Mouse hepatocytes; Mouse Hepatocytes, well stirred liver model, fu=1
  EH (%) hepatic extraction ratio: 4.6%
Mouse hepatocytes; mouse hepatocytes
  clearance / metabolic profile, in words: low clearance
[2]
  half-life at 1 μM: 14 h
[3]; EMT-6 model, 40 mpk
  anti-tumor potency, in words: superior anti-tumor activity than ARI-087
  tumor growth and survival, in words: delay tumor growth and prolong survival
[3]; EMT-6 model, Study 4, by day 46
  complete tumor regression (CR): 1 out of 10
[3]; Mus musculus, EMT6, ip, 672 h, Study 4, EMT-6, 40 mpk i.p. QD, D28, read-out: TGI (tumor growth inhibition)
  inhibition in vivo at 40 mg/kg: 54.5%

— patent US11891386B2, “Indole compounds and their use” (ARIAGEN, INC., priority 2017, dated 2024)
